Assay results from paper PMC12216759 (Nature Communications, 2025).

How the values were obtained:
Format in all cases: biochemical
SHV-5 [1] = target: T1, SHV-5 (Enterobacter cloacae, UniProt Q6QNE1); test: steady-state hydrolysis kinetics of purified enzyme
SHV-5 M69I [2] = target: T2, SHV-5 M69I (Enterobacter cloacae, UniProt Q6QNE1, M65I); test: as above
SHV-5 M69I [3] = target: T2, SHV-5 M69I; test: hydrolysis kinetics of purified enzyme
SHV-5 [4] = target: T1, SHV-5; test: steady-state hydrolysis kinetics of purified enzyme; remark: listed apart in the source
SHV-5 [5] = target: T1, SHV-5; test: as above; remark: listed apart in the source
SHV-5 M69I [6] = target: T2, SHV-5 M69I; test: as above; remark: listed apart in the source

## CO/N=C(\C(=O)N[C@@H]1C(=O)N2C(C(=O)O)=C(COC(C)=O)CS[C@H]12)c1csc(N)n1 [cefotaxime]
SHV-5 [1]
  steady-state hydrolysis kinetics of purified enzyme (UV, 264 nm): 8 × 10^5 M^−1s^−1 (kcat/KM)
SHV-5 M69I [2]
  steady-state hydrolysis kinetics of purified enzyme (UV, 264 nm): 2.3 × 10^4 M^−1s^−1 (kcat/KM)

## CC(C)(O/N=C(\C(=O)N[C@@H]1C(=O)N2C(C(=O)[O-])=C(C[N+]3(CCNC(=O)c4ccc(O)c(O)c4Cl)CCCC3)CS[C@H]12)c1csc(N)n1)C(=O)O [cefiderocol]
SHV-5 M69I [3]
  hydrolysis kinetics of purified enzyme (UV, 259 nm); KM too high to determine: 1.2 × 10^3 M^−1s^−1 (kcat/KM)
SHV-5 [4]
  steady-state hydrolysis kinetics of purified enzyme (UV, 259 nm): 9 × 10^3 M^−1s^−1 (kcat/KM)

## CC(=O)OCC1=C(C(=O)O)N2C(=O)[C@@H](NC(=O)Cc3cccs3)[C@H]2SC1 [cephalothin]
SHV-5 [5]
  steady-state hydrolysis kinetics of purified enzyme (UV, 262 nm): 1 ×10^6 M^−1s^−1 (kcat/KM)
SHV-5 M69I [6]
  steady-state hydrolysis kinetics of purified enzyme (UV, 262 nm): 8 × 10^4 M^−1s^−1 (kcat/KM)
